Experimental data from publication PMC8269107, “Lipidation of Temporin-1CEb Derivatives as a Tool for Activity Improvement, Pros and Cons of the Approach” (International Journal of Molecular Sciences, 2021).
≈ marks a conversion by molar mass, not a printed value. Where a SMILES comes first, the peptide text is derived from it. [ ]: non-standard residue; d: D form. The star is where a group is joined. Palmitoyl = CCCCCCCCCCCCCCCC(=O)*; Lauroyl = CCCCCCCCCCCC(=O)*; Pentanoyl = CCCCC(=O)*; AEEA = NCCOCCOCC(=O)O; βAla = NCCC(=O)O

Assays:
[1] = test system: C.glabrata CCM 8270; experiment: MIC, broth microdilution; type: cell-based, Candida glabrata; conditions: C.glabrata CCM 8270, 24 h
Excerpt: (§1) Escherichia coli (PCM 2057 = ATCC 25922), Staphylococcus aureus (PCM 2054 = ATCC 25923), Staphylococcus epidermidis (PCM 2118 = ATCC 14990), Bacillus subtilis (PCM 2224 = ATCC 9799), Bacillus cereus (PCM 482 = ATCC 10702) and Pseudomonas aeruginosa (PCM 499 = ATCC 10145) were obtained from the Polish Collection of Microorganisms. Fungi strains Candida albicans (CCM 8186 = CNTC 49/64), Candida glabrata (CCM 8270 = ATCC 90030), Candida parapsilosis (CCM 8260 = ATCC 22019) and Candida krusei (CCM 8271 = ATCC 6258) were acquired from the Czech Collection of Microorganisms. S. aureus USA300 (wild type strain), the reference strain of Klebsiella pneumoniae (ATCC 13883) and clinical isolates of Pseudomonas aeruginosa (PA1, PA2) collected from nonrelated patients admitted to the Stefan Zeromski Specialist Municipal Hospital in Krakow (Poland) were kindly provided by the research group of the Department of Microbiology, Faculty of Biochemistry, Biophysics and Biotechnology, Jagiellonian University, Krakow, Poland.
(§2) Luria-Bertani broth (LB) and Sabouraud Dextrose broth (SB) (Biocorp, Poland) were used for cultivation of bacteria and fungi strains, respectively. The antimicrobial activity of the peptides were analyzed through determination of MIC (minimal inhibitory concentration) parameters according to Clinical and Laboratory Standards (CLSI) guidelines developed for aerobic bacteria and yeasts, respectively. Mueller-Hinton broth (MHB) was used as the working medium for all bacterial strains, while in the case of fungi, RPMI-1640 (with L-glutamine, without sodium bicarbonate) growth medium buffered with MOPS (morpholinepropanesulfonic acid) and supplemented with 2% glucose was used. Inoculum was prepared from freshly grown cultures of microorganisms at their exponential phase of growth. […] Plates were then incubated for 24 h at 37 °C in the case of bacteria and at 35 °C in the case of fungi. After that time, absorbance was read at 590 nm with a Perkin Elmer plate reader. Cultures without peptide were treated as positive control, while uninoculated media were defined as negative control. All measurements were run at least in triplicate.

[2] = test system: C.parapsilosis CCM 8260; experiment: MIC, broth microdilution; type: cell-based, Candida parapsilosis; conditions: C.parapsilosis CCM 8260, 24 h
Excerpt: as §1, §2

[3] = test system: keratinocytes (HaCaT); experiment: Cytotoxicity, MTT assay; type: cell-based, human; conditions: 24 h
Procedure: (§3) Human dermal fibroblasts were obtained as previously reported from biopsies of healthy human skin of three donors undergoing a surgery. All procedures were approved by the Ethics Committee of Medicinal University of Gdansk (NKEBN/483/2011 and NKBBN/745/2019-2020). Immortalized human HaCaT keratinocytes (DKFZ Heidelberg, Germany) were obtained commercially.
(§4) Both types of cell lines were grown in Dulbecco′s Modified Eagle′s Medium (DMEM) (Sigma-Aldrich, Germany), containing […] of glucose, […] of L- glutamine, sodium pyruvate and sodium bicarbonate. Additionally, the medium was supplemented with 10% FCS (fetal calf serum, Sigma-Aldrich, Germany), 100 U/mL of penicillin and 100 μg/mL of streptomycin (Sigma-Aldrich, Germany). The cells were grown in standard culture dishes (BD, USA) in a humidified atmosphere with 5% CO2 at […], and the medium was changed every 2 days.
(§5) The fibroblasts and keratinocytes were seeded at density of 5500 cells per well into 96-well plates suspended in a medium supplemented with 10% FCS. After 24 h from seeding, the media were exchanged with serum- and antibiotic-free DMEM and tested peptides, dissolved in sterile water, which were added, yielding a final concentration ranging from 1 to 50 μg/mL. The cells were then incubated for the next 24 h. At the end of the experiment, the cells were treated with 20 μL of MTT (5 mg/mL in PBS). After 3 h of incubation in the presence of MTT dye, the DMEM medium was discarded and replaced with 6 mM HCl in isopropanol. When the purple crystals of formazan were fully solubilized, absorbance at 570 nm was read.

[4] = test system: primary fibroblasts; experiment: Cytotoxicity, MTT assay; type: cell-based, human; conditions: 24 h
Procedure: as §3, §4, §5

[5] = test system: P. aeruginosa PCM 499; experiment: MIC, broth microdilution; type: cell-based, Pseudomonas aeruginosa; conditions: P. aeruginosa PCM 499, 24 h
Excerpt: as §1, §2

[6] = test system: C. albicans (CCM 8186) biofilm; experiment: Biofilm eradication assay, pre-formed 24 h old biofilm (MTT); type: cell-based, Candida albicans; conditions: C. albicans pre-formed 24 h old biofilm, 24 h treatment
Procedure: In the case of yeasts, the overnight culture of C. albicans in Sabouraud dextrose broth (SB) was used for inoculum preparation. Similar to above, 5 mL of 24 h culture was centrifuged, washed with PBS and then suspended in sterile RPMI-1640 medium (with L-glutamine, without sodium bicarbonate) supplemented with 2% glucose (RPMI-1640/+G) yielding the amount of about 1 × 10^7 cells per ml. Subsequently, 200 µL of yeast suspension was transferred into each well of a microtiter plate, and it was incubated stationary for the next 24 h at 35 °C.
After that, each well of the plates containing bacterial or fungi biofilm was washed three times with PBS in order to remove all non-adherent cells. Then, peptide solutions of 200 µL ranging from 50 to 0,39 µg/mL prepared in TSB +/G in the case of experiments on S. aureus biofilm, and (RPMI-1640/+G) in the case of C. alibcans, were prepared and transferred into the microtiter plates. After the addition of the peptides, the experiments were continued for the next 24 h.
The reduction in biofilm viability was analyzed by means of MTT assay. Briefly, 20 μL of MTT solution (5 mg/mL in PBS) was added to prewashed wells with exchanged medium (180 μL of fresh medium) wells containing bacterial/yeast biofilms. Plates were then incubated in the dark for the next 3 h at 37 °C. After that time, the medium was replaced with 6 mM HCl in isopropanol and, when the reduced MTT was fully dissolved, the plates were read at 570 nm. Activity against fully developed 24 h old biofilm was described as biofilm eradication concentration (BEC50 expressed in µg/mL), which corresponded to the concentration of the compound able to reduce 50% of biofilm viability compared with the growth control.

[7] = test system: E. coli PCM 2057; experiment: MIC, broth microdilution; type: cell-based, Escherichia coli; conditions: E. coli PCM 2057, 24 h
Excerpt: as §1, §2

Structure (SMILES)	MIC100 [1] [µg/mL]	MIC100 [2] [µg/mL]	IC50 ([3]; Keratinocytes (HaCaT), MTT) [µg/mL]	IC50 ([4]; primary Fibroblasts, MTT) [µg/mL]	MIC100 [5] [µg/mL]	BEC50 [6] [µg/mL]	MIC100 [7] [µg/mL]	IC50 [3] [µg/mL]	IC50 [4] [µg/mL]	effect on cell viability (in words) ([3]; keratinocytes, MTT, 1 to 50 µg/mL)	effect on cell viability (in words) ([4]; fibroblasts, MTT, 1 to 50 µg/mL)
CCCCCCCCCCCC(=O)NCCC(=O)N[C@@H](Cc1c[nH]cn1)C(=O)NCCOCCOCC(=O)N[C@H](C(=O)N[C@@H](CCCCN)C(=O)N[C@@H](CCCCN)C(=O)N[C@H](C(=O)N[C@@H](CC(C)C)C(=O)N[C@@H](CO)C(=O)N[C@@H](CCCCN)C(=O)N[C@H](C(=O)N[C@@H](CCCCN)C(=O)N[C@@H](CCCCN)C(=O)N[C@@H](CC(C)C)C(=O)N[C@@H](CC(C)C)C(N)=O)[C@@H](C)CC)[C@@H](C)CC)[C@@H](C)CC [C12-CAR-PEG-DK5] ({Lauroyl-βAla}-H[AEEA]IKKILSKIKKLL-NH2)	12.5 (≈ 6.38 µM)	3.13 (≈ 1.6 µM)	10 (≈ 5.1 µM)	12.5 (≈ 6.38 µM)	12.5 (≈ 6.38 µM)	12.5	3.13 (≈ 1.6 µM)				
CCCCCCCCCCCCCCCC(=O)NCCC(=O)N[C@@H](Cc1c[nH]cn1)C(=O)NCCOCCOCC(=O)N[C@H](C(=O)N[C@@H](CCCCN)C(=O)N[C@@H](CCCCN)C(=O)N[C@H](C(=O)N[C@@H](CC(C)C)C(=O)N[C@@H](CO)C(=O)N[C@@H](CCCCN)C(=O)N[C@H](C(=O)N[C@@H](CCCCN)C(=O)N[C@@H](CCCCN)C(=O)N[C@@H](CC(C)C)C(=O)N[C@@H](CC(C)C)C(N)=O)[C@@H](C)CC)[C@@H](C)CC)[C@@H](C)CC [C16-CAR-PEG-DK5] ({Palmitoyl-βAla}-H[AEEA]IKKILSKIKKLL-NH2)	>50	6.25 (≈ 3.1 µM)	1 (≈ 0.496 µM)	4 (≈ 1.98 µM)	>50	15	>50				
CC[C@H](C)[C@H](NC(=O)COCCOCCNC(=O)[C@H](Cc1c[nH]cn1)NC(=O)CCN)C(=O)N[C@@H](CCCCN)C(=O)N[C@@H](CCCCN)C(=O)N[C@H](C(=O)N[C@@H](CC(C)C)C(=O)N[C@@H](CO)C(=O)N[C@@H](CCCCN)C(=O)N[C@H](C(=O)N[C@@H](CCCCN)C(=O)N[C@@H](CCCCN)C(=O)N[C@@H](CC(C)C)C(=O)N[C@@H](CC(C)C)C(N)=O)[C@@H](C)CC)[C@@H](C)CC [CAR-PEG-DK5] (H-[βAla]H[AEEA]IKKILSKIKKLL-NH2; N-terminus and C-terminus assumed)	62.5 (≈ 35.2 µM)	31.3 (≈ 17.6 µM)			50 (≈ 28.1 µM)	>50	>50	>50	35 (≈ 19.7 µM)		
CCCCC(=O)N[C@H](C(=O)N[C@@H](CCCCN)C(=O)N[C@@H](CCCCN)C(=O)N[C@H](C(=O)N[C@@H](CC(C)C)C(=O)N[C@@H](CO)C(=O)N[C@@H](CCCCN)C(=O)N[C@H](C(=O)N[C@@H](CCCCN)C(=O)N[C@@H](CCCCN)C(=O)N[C@@H](CC(C)C)C(=O)N[C@@H](CC(C)C)C(N)=O)[C@@H](C)CC)[C@@H](C)CC)[C@@H](C)CC [Compound C5-DK5] (Pentanoyl-IKKILSKIKKLL-NH2)	6.25 (≈ 4.14 µM)	3.13 (≈ 2.08 µM)	35 (≈ 23.2 µM)	20 (≈ 13.3 µM)	25 (≈ 16.6 µM)	12.5	3.13 (≈ 2.08 µM)			moderately toxic	moderately toxic
